Reference: patent publication US6331642A, “Vitamin D3 analogs” (Hoffmann-La Roche Inc., priority 2000, dated 2001)

Legend:
MCF-7 cells [1] = test: Pulse-exposure experiments, soft agar colony assay; format: cell-based; conditions: 4 days of exposure, 10^-7, colonies counted day 14
Protocol: Pulse-Exposure Experiments. The MCF-7 cells were incubated in liquid culture with 10^-7 of 1,25(OH)2 D3 or 1,25(OH)2 -16-ene-5,6-trans-D3 for various duration. After incubation, these cells were carefully washed twice with PBS and viable cells were counted and plated into 24-well plates for soft agar colony assay, as previously described.
Pulse-Exposure Experiments. […] The MCF-7 cells were exposed to either 1,25(OH)2 -16-ene-5,6-trans-D3 or 1,25(OH)2 D3 for various durations, washed thoroughly, plated in soft agar, and colony numbers were enumerated on day 14 of culture.

MCF-7 cells [2] = test: Cell cycle analysis by flow cytometry; format: cell-based; conditions: 10^-7 M, 4 days
Protocol: Cell Cycle Analysis by Flow Cytometry. Cell cycle analysis was performed on MCF-7 cells incubated for 4 days with either 1,25(OH)2 D3 or 1,25(OH)2 -16-ene-5,6-trans-D3 at 10^-7 M. The cells were fixed in chilled methanol overnight before staining with 50 μg/ml propidium iodide, 1 mg/ml Rnase (100 units/ml) and 0.1% NP40. Analysis was performed immediately after staining. All experiments were done at least three times independently. All data were statistically analyzed by Student's test.
Cell cycle Analysis. Effect of 1,25(OH)2 -16-ene-5,6-trans-D3 and 1,25(OH)2 D3 (10^-7, 4 days) on the cell cycle of the MCF-7 cells was determined.

[3] = Serum calcium levels in vivo, mice; set-up: species or system male Balb/c mice; conditions: for survival: 3 weeks of study
Protocol: Serum Calcium Levels in vivo. Twenty-eight male Balb/c mice at 8 to 9 weeks of age were maintained in pathogen-free conditions and fed a standard laboratory diet. Four mice per group were injected intraperitoneally every other day (except Saturday and Sunday) with either vitamin D3 compound or diluant (100 μl/mouse) for 3 weeks. Doses of 1,25(OH)2-16-ene-5,6-trans-D3 were: 0.1, 0.5, 1.0, and 2.0 μg. Doses of 1,25(OH)2 D3 were 0.1 μg/mouse. Control mice were injected with 100 μl of PBS. Serum calcium values were measured every week by the quantitative, colorimetric detection assay.
Serum Calcium Levels in vivo. Because hypercalcemia is a major toxicity of vitamin D3 compounds, the calcemic effects of 1,25(OH)2 D3 were compared with 1,25(OH)2 -16-ene-5,6-trans-D3.

[4] = tested on: prostate cancer cell line (LNCaP); test: Clonogenic assay in soft agar, LNCaP; format: cell-based; conditions: Homo sapiens, LNCaP cells, read-out: ED50 (effective dose that inhibited 50% colony formation)
Protocol: (§1) Cell lines. The breast cancer cell line (MCF-7), prostate cancer cell line (LNCaP) and myeloid leukemia cell line (HL-60) were maintained as follows: MCF-7 cells were maintained in Dulbecco's Modified Eagle Media (DMEM) with 10% fetal calf serum (FCS); LNCaP and HL-60 were cultured in RPMI1640 with 10% FCS; All three cell lines were maintained in a 37° C. incubator containing 5% CO2.
(§2) Vitamin D3 Compounds. The vitamin D3 compounds were dissolved in absolute ethanol at 10^-3 M as stock solution, which were stored at -20° C. and protected from light. For in vitro use, compounds were diluted in DMEM or RPMI medium. For in vivo use, compounds were diluted with phosphate buffered saline (PBS). […]. Washed single-cell suspensions of cells were enumerated and plated into 24-well flat-bottomed plates with a total of […] cells/well in a volume of 400 μl/well. The feeder layer was prepared with agar that had been equilibrated at 42° C. Prior to this step, compounds were pipetted into wells. After incubation, the colonies were counted. All experiments were done at least three times using triplicate plates per experimental point.
(§3) Effect of Vitamin D3 analogs on Clonogenic Assay. […]

ear total lipid fraction = test: Total lipid fraction of hamster ear; format: in vivo, Golden Syrian hamsters; conditions: 4 weeks
Protocol: (§4) Two hundred μl of (1,25)OH2 -16-ene-5,6-trans D3 was dissolved in propylene glycol, administered daily (5 days per week) by gavage to […] Golden Syrian hamsters. The animals were sacrificed at 4 weeks and the ears were processed for histological evaluation. The area of the sebaceous glands was measured on histologically prepared cross sections of the ear by image analysis.
Also examined was the total lipid fraction from one of the ears (extraction by organic solvent followed by weighing the remaining lipid material).

[5] = tested on: myeloid leukemia cell line (HL-60); test: Clonogenic assay in soft agar, HL-60; format: cell-based; conditions: Homo sapiens, HL-60 cells, read-out: ED50 (effective dose that inhibited 50% colony formation)
Protocol: as §1, §2, §3

[6] = tested on: breast cancer cell line (MCF-7); test: Clonogenic assay in soft agar, MCF-7; format: cell-based; conditions: Homo sapiens, MCF7, MCF-7 cells, read-out: ED50 (effective dose that inhibited 50% colony formation)
Protocol: as §1, §2, §3

[7] = tested on: LNCaP cells, MCF-7 cells and HL-60 cells; test: Clonogenic assay, three cell lines together; format: cell-based
Protocol: as §1, §2, §3

sebaceous glands = test: Sebaceous gland area, hamster ear (image analysis); format: in vivo, Golden Syrian hamsters; conditions: 4 weeks
Protocol: as §4

[8] = Serum calcium levels, adult female rats, day 7 of oral dosing; format: in vivo; conditions: for Serum Calcium Mean: vehicle 9.65
Protocol: Three month old adult female rats were used. […] On day 7 of dosing, animals were bled and serum calcium levels were determined. Compound was dissolved in 200 proof ethanol to produce a concentration of 100 μg/ml. […] Dose volume was calculated using the dosing group average body weight. Serial dilutions of vehicle dissolved compound were done to appropriate dosage concentrations. Blood (1.5 ml) was collected from each animal by orbital puncture under ether anesthesia on Day 7 of dosing. Blood was collected into serum separator tubes, centrifuged at 2000 rpm for 15 minutes and then serum aliquoted for calcium determinations. Serum calcium was determined by colorimetric assay.

Compound: C=C1/C(=C\C=C2/CCC[C@]3(C)[C@@H]([C@H](C)CCCC(C)(C)O)CC[C@@H]23)C[C@@H](O)C[C@@H]1O [1,25(OH)2 D3, reference compound]
- clonogenic cells inhibited (MCF-7 cells [1]): thirty
- number of cells in the G0-G1 phase (MCF-7 cells [2]): significant increase (P≤0.05)
- proportion of cells in S phase (MCF-7 cells [2]): concomitant decrease
- hypercalcemia ([3]; 0.1 μg/mouse i.p. every other day, 3 weeks): all hypercalcemic
- serum calcium level ([3]; 0.1 μg/mouse i.p. every other day, 3 weeks, normal 8.5-10.5 mg/dl): approximately 12 mg/dl
- survival [3]: All mice survived

Compound: C=C1/C(=C/C=C2\CCC[C@]3(C)C([C@H](C)CCCC(C)(C)O)=CC[C@@H]23)C[C@@H](O)C[C@@H]1O [1,25(OH)2-16-ene-5,6-trans-D3, 1,25-Dihydroxy-16-ene-5,6-trans-cholecalciferol]
- IC50 [4]: 1.4 nM
- clonogenic cells inhibited (MCF-7 cells [1]): Approximately forty
- total lipid fraction, % Change from Control (ear total lipid fraction; 0.01 μg/day gavage): -26%
- total lipid fraction, % Change from Control (ear total lipid fraction; 0.1 μg/day gavage): -25%
- total lipid fraction, % Change from Control (ear total lipid fraction; 1 μg/day gavage): -37%
- total lipid fraction, % Change from Control (ear total lipid fraction; 10 μg/day gavage): -56%
- IC50 [5]: 0.03 nM
- IC50 [6]: 4.3 nM
- inhibition of clonal proliferation ([7]; 10^-11 to 10^-7 M): effective in inhibition of clonal proliferation of the three cell lines in a dose-dependent manner
- potency relative to 1,25(OH)2 D3 (fold more potent) ([7]; vs 1,25(OH)2 D3, about): 10-100 fold
- sebaceous gland area, % Change from Control (sebaceous glands; 0.01 μg/day gavage): -5%
- sebaceous gland area, % Change from Control (sebaceous glands; 0.1 μg/day gavage): -23%
- sebaceous gland area, % Change from Control (sebaceous glands; 1 μg/day gavage): -50%
- sebaceous gland area, % Change from Control (sebaceous glands; 10 μg/day gavage): -50%
- number of cells in the G0-G1 phase (MCF-7 cells [2]): significant increase (P≤0.05)
- proportion of cells in S phase (MCF-7 cells [2]): concomitant decrease
- serum calcium level ([3]; 0.1-2.0 μg/mouse i.p. every other day, 3 weeks, control mice 8-9 mg/dl): 8 to 10 mg/dL
- serum calcium level compared with control mice ([3]; 0.1-2.0 μg/mouse i.p., 3 weeks): almost the same calcium level
- survival [3]: All mice survived
- Serum Calcium Mean ([8]; 0.5 μg/kg/day oral): 10.64 mg/dL
- Serum Calcium Mean ([8]; 1 μg/kg/day oral): 10.06 mg/dL
- Serum Calcium Mean ([8]; 1.5 μg/kg/day oral): 9.92 mg/dL
- Serum Calcium Mean ([8]; 2 μg/kg/day oral): 9.77 mg/dL
- serum calcium levels ([8]; up to 2 μg/kg/day oral): within the normal range
